Test results reported in the supplement of paper PMC11061612.

Tests used:
Assay in all cases: Bliss excess, mean over the matrix (fraction); higher = more synergy
[1] = test system: VAL (B-Cell Non-Hodgkin's Lymphoma)
Method in brief: (§1)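 After 24 hours at 37°C and 5% CO2 in 1536-well plates, cells in DMEM/F12 or RPMI plus 10% FBS received two-drug dose matrices for 72 hours. Viability came from CellTiter-Glo 2.0 luminescence and was scaled as inhibition, anchored at 0 by vehicle wells and at 1 by blank wells. Combination Emax is taken as the second-highest inhibition in the matrix, and Bliss excess as the observed combination effect less EA + EB − EA·EB, with EA and EB the single-agent effects.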

[2] = test system: MKN45 (Gastric Carcinoma)
Method in brief: as §1

NB12 (Neuroblastoma) = test system: NB12 (Neuroblastoma)
Method in brief: as §1

[3] = test system: TE-8 (Esophageal Squamous Cell Carcinoma)
Method in brief: as §1

[4] = test system: CAL-62 (Thyroid Gland Carcinoma)
Method in brief: as §1

SK-MEL-2 (Melanoma) = test system: SK-MEL-2 (Melanoma)
Method in brief: as §1

IST-MES1 (Mesothelioma) = test system: IST-MES1 (Mesothelioma)
Method in brief: as §1

[5] = test system: SHP-77 (Small Cell Lung Carcinoma)
Method in brief: as §1

| SMILES | Bliss excess [1] | Bliss excess [2] | Bliss excess (NB12 (Neuroblastoma)) | Bliss excess [3] | Bliss excess [4] | Bliss excess (SK-MEL-2 (Melanoma)) | Bliss excess (IST-MES1 (Mesothelioma)) | Bliss excess [5] |
| --- | --- | --- | --- | --- | --- | --- | --- | --- |
| C=CCn1c(=O)c2cnc(Nc3ccc(N4CCN(C)CC4)cc3)nc2n1-c1cccc(C(C)(C)O)n1 [AZD1775] + CCc1c2c(nc3ccc(O)cc13)-c1cc3c(c(=O)n1C2)COC(=O)[C@]3(O)CC [SN-38] (first compound max 1 µM, partner max 0.3 µM) | -0.0619 | -0.0893 | -0.0514 | 0.0659 | -0.0489 | 0.0426 | 0.0008 | -0.0315 |
| Cc1c2c(nn1C)CSCc1cc(n(C)n1)CSc1cc(c3ccccc3c1)OCCCc1c(C(=O)O)n(C)c3c-2c(Cl)ccc13 [AZD5991] + CC(=O)O[C@H]1C(=O)[C@@]2(C)[C@H]([C@H](OC(=O)c3ccccc3)[C@]3(O)C[C@H](OC(=O)[C@H](O)[C@@H](NC(=O)c4ccccc4)c4ccccc4)C(C)=C1C3(C)C)[C@]1(OC(C)=O)CO[C@@H]1C[C@@H]2O [Paclitaxel] (first compound max 1 µM, 7x7, partner max 3 µM) | -0.0913 | -0.0238 | -0.0424 | -0.0041 | -0.0941 | -0.0341 | -0.007 | -0.0043 |
| C[C@@H](Oc1cc(-c2cnn(C3CCNCC3)c2)cnc1N)c1c(Cl)ccc(F)c1Cl [Crizotinib] + Cn1cnc2c(F)c(Nc3ccc(Br)cc3Cl)c(C(=O)NOCCO)cc21 [Selumetinib] (first compound max 10 µM, 7x7, partner max 10 µM) | -0.0516 | -0.0192 | -0.0665 | -0.0898 | -0.0219 | 0.0382 | -0.0311 | 0.0404 |
| C[C@@H](Nc1cc(F)cc(F)c1)c1cc(C(=O)N(C)C)cc2c(=O)cc(N3CCOCC3)oc12 [AZD8186] + CC(=O)c1c(C)c2cnc(Nc3ccc(N4CCNCC4)cn3)nc2n(C2CCCC2)c1=O [Palbociclib] (first compound max 10 µM, 7x7, partner max 10 µM) | -0.0615 | -0.0476 | 0.0009 | -0.0495 | 0.0294 | -0.0346 | 0.0167 | -0.0692 |
| C[C@@H](Oc1cc(-c2cnn(C3CCNCC3)c2)cnc1N)c1c(Cl)ccc(F)c1Cl [Crizotinib] + CC1=C(C(=CC=C1)Cl)NC(=O)C2=CN=C(S2)NC3=CC(=NC(=N3)C)N4CCN(CC4)CCO [Dasatinib] (first compound max 10 µM, 7x7, partner max 2 µM) | -0.0228 | -0.048 | -0.0563 | 0.0208 | 0.0464 | -0.0362 | -0.0152 | -0.0482 |
| O=C(c1cc(Cc2n[nH]c(=O)c3ccccc23)ccc1F)N1CCN(C(=O)C2CC2)CC1 [Olaparib] + CC1(C)CCC(CN2CCN(c3ccc(C(=O)NS(=O)(=O)c4ccc(NCC5CCOCC5)c([N+](=O)[O-])c4)c(Oc4cnc5[nH]ccc5c4)c3)CC2)=C(c2ccc(Cl)cc2)C1 [Venetoclax] (first compound max 10 µM, 7x7, partner max 1 µM) | 0.0181 | -0.0424 | 0.0811 | -0.0825 | -0.0329 | 0.0044 | -0.0432 | -0.0028 |
| CS(=O)(=O)CCNCc1ccc(-c2ccc3ncnc(Nc4ccc(OCc5cccc(F)c5)c(Cl)c4)c3c2)o1 [Lapatinib] + Cn1cnc2c(F)c(Nc3ccc(Br)cc3Cl)c(C(=O)NOCCO)cc21 [Selumetinib] (first compound max 10 µM, 7x7, partner max 10 µM) | -0.0549 | -0.0778 | -0.11 | -0.0505 | -0.0284 | 0.0062 | -0.0348 | -0.02 |
| O=C(c1cc(Cc2n[nH]c(=O)c3ccccc23)ccc1F)N1CCN(C(=O)C2CC2)CC1 [Olaparib] + Cc1c2c(nn1C)CSCc1cc(n(C)n1)CSc1cc(c3ccccc3c1)OCCCc1c(C(=O)O)n(C)c3c-2c(Cl)ccc13 [AZD5991] (first compound max 10 µM, 7x7, partner max 1 µM) | 0.0078 | -0.0368 | -0.0407 | -0.0467 | -0.0483 | 0.0379 | -0.0434 | 0.0008 |
| C[C@@H]1COCCN1c1cc(C2([S@](C)(=N)=O)CC2)nc(-c2ccnc3[nH]ccc23)n1 [AZD6738] + Nc1ccn([C@@H]2O[C@H](CO)[C@@H](O)C2(F)F)c(=O)n1 [Gemcitabine] (first compound max 10 µM, 7x7, partner max 0.3 µM) | -0.108 | -0.0824 | -0.012 | 0.0028 | -0.0064 | 0.0586 | -0.0097 | 0.0746 |
| N#Cc1cnc(Nc2cc(NC[C@H]3CNCCO3)c(C(F)(F)F)cn2)cn1 [SRA737] + C=CCn1c(=O)c2cnc(Nc3ccc(N4CCN(C)CC4)cc3)nc2n1-c1cccc(C(C)(C)O)n1 [AZD1775] (first compound max 10 µM, partner max 1 µM) | 0.0116 | -0.0475 | 0.0199 | -0.0377 | 0.043 | 0.098 | 0.0282 | 0.0512 |
| CN(CCO)CC[C@H](CSc1ccccc1)Nc1ccc(S(=O)(=O)NC(=O)c2ccc(N3CCC([C@@H](O)c4ccccc4-c4ccc(Cl)cc4)CC3)cc2)cc1S(=O)(=O)C(F)(F)F [AZD4320] + CS(=O)(=O)CCNCc1ccc(-c2ccc3ncnc(Nc4ccc(OCc5cccc(F)c5)c(Cl)c4)c3c2)o1 [Lapatinib] (first compound max 1 µM, 7x7, partner max 10 µM) | 0.0503 | -0.0888 | 0.0902 | 0.0281 | 0.0444 | -0.0501 | 0.0367 | 0.159 |
| CC1(C)CCC(CN2CCN(c3ccc(C(=O)NS(=O)(=O)c4ccc(NCC5CCOCC5)c([N+](=O)[O-])c4)c(Oc4cnc5[nH]ccc5c4)c3)CC2)=C(c2ccc(Cl)cc2)C1 [Venetoclax] + CS(=O)(=O)CCNCc1ccc(-c2ccc3ncnc(Nc4ccc(OCc5cccc(F)c5)c(Cl)c4)c3c2)o1 [Lapatinib] (first compound max 1 µM, 7x7, partner max 10 µM) | -0.0033 | -0.054 | -0.0427 | -0.0453 | -0.0442 | -0.0207 | -0.0357 | 0.0197 |
| N#Cc1cnc(Nc2cc(NC[C@H]3CNCCO3)c(C(F)(F)F)cn2)cn1 [SRA737] + O=c1[nH]cc(F)c(=O)[nH]1 [5-Fluorouracil] (first compound max 10 µM, 7x7, partner max 20 µM) | – | -0.0689 | -0.0626 | -0.0279 | -0.0187 | -0.025 | -0.0169 | 0.0009 |
| Cc1nc(-c2cn3c(n2)-c2ccc(-c4cnn(C(C)(C)C(N)=O)c4)cc2OCC3)n(C(C)C)n1 [Taselisib] + O=C(Nc1ccc2[nH]nc(-c3ccncc3)c2c1)[C@@H]1CCN(CC(=O)N2CCN(c3ccc(-c4ncccn4)cc3)CC2)C1 [SCH772984] (first compound max 10 µM, 7x7, partner max 5 µM) | -0.002 | 0.0587 | -0.0116 | -0.0514 | 0.0096 | 0.136 | -0.0307 | -0.0221 |
| O=C(c1cc(Cc2n[nH]c(=O)c3ccccc23)ccc1F)N1CCN(C(=O)C2CC2)CC1 [Olaparib] + COc1nnc2ccc(N3CCC(c4ccc(OCCN5CCN(C)C(=O)[C@H]5C)cc4)CC3)nn12 [AZD5153] (first compound max 10 µM, 7x7, partner max 1 µM) | -0.0784 | -0.0794 | -0.0203 | -0.0706 | -0.0556 | -0.0421 | -0.117 | 0.0113 |
| Cc1c2c(nn1C)CSCc1cc(n(C)n1)CSc1cc(c3ccccc3c1)OCCCc1c(C(=O)O)n(C)c3c-2c(Cl)ccc13 [AZD5991] + CS(=O)(=O)CCNCc1ccc(-c2ccc3ncnc(Nc4ccc(OCc5cccc(F)c5)c(Cl)c4)c3c2)o1 [Lapatinib] (first compound max 1 µM, 7x7, partner max 10 µM) | -0.137 | -0.146 | -0.0394 | 0.0014 | -0.0118 | -0.0147 | 0.0139 | 0.0045 |
| N#Cc1cnc(Nc2cc(NC[C@H]3CNCCO3)c(C(F)(F)F)cn2)cn1 [SRA737] + Nc1ccn([C@@H]2O[C@H](CO)[C@@H](O)C2(F)F)c(=O)n1 [Gemcitabine] (first compound max 10 µM, 7x7, partner max 0.3 µM) | -0.125 | -0.0613 | 0.0372 | -0.022 | 0.0436 | 0.0686 | 0.0486 | 0.141 |
| Cc1c2c(nn1C)CSCc1cc(n(C)n1)CSc1cc(c3ccccc3c1)OCCCc1c(C(=O)O)n(C)c3c-2c(Cl)ccc13 [AZD5991] + Nc1ccn([C@@H]2O[C@H](CO)[C@@H](O)C2(F)F)c(=O)n1 [Gemcitabine] (first compound max 1 µM, 7x7, partner max 0.3 µM) | -0.0324 | -0.0655 | 0.0008 | -0.0682 | -0.024 | -0.0657 | -0.0208 | 0.0181 |
| N#Cc1cnc(Nc2cc(NC[C@H]3CNCCO3)c(C(F)(F)F)cn2)cn1 [SRA737] + CCc1c2c(nc3ccc(O)cc13)-c1cc3c(c(=O)n1C2)COC(=O)[C@]3(O)CC [SN-38] (first compound max 10 µM, 7x7, partner max 0.3 µM) | -0.122 | 0.0226 | -0.114 | 0.0052 | -0.0228 | 0.0931 | -0.0108 | 0.13 |
| C=CCn1c(=O)c2cnc(Nc3ccc(N4CCN(C)CC4)cc3)nc2n1-c1cccc(C(C)(C)O)n1 [AZD1775] + Nc1ccn([C@@H]2O[C@H](CO)[C@@H](O)C2(F)F)c(=O)n1 [Gemcitabine] (first compound max 1 µM, partner max 0.3 µM) | – | -0.116 | 0.0471 | -0.0247 | -0.0162 | -0.0156 | 0.0603 | 0.0032 |
| C[C@@H](Nc1cc(F)cc(F)c1)c1cc(C(=O)N(C)C)cc2c(=O)cc(N3CCOCC3)oc12 [AZD8186] + C1CN(CCC1(C(=O)N[C@@H](CCO)C2=CC=C(C=C2)Cl)N)C3=NC=NC4=C3C=CN4 [AZD5363] (first compound max 10 µM, 7x7, partner max 10 µM) | -0.0608 | -0.038 | -0.0305 | -0.0543 | -0.0203 | -0.0285 | -0.0703 | -0.0913 |
| O=C(c1cc(Cc2n[nH]c(=O)c3ccccc23)ccc1F)N1CCN(C(=O)C2CC2)CC1 [Olaparib] + CN(CC[C@H](CSC1=CC=CC=C1)NC2=C(C=C(C=C2)S(=O)(=O)NC(=O)C3=CC=C(C=C3)N4CCC(CC4)[C@H](C5=CC=CC=C5C6=CC=C(C=C6)Cl)O)S(=O)(=O)C(F)(F)F)CCO [AZD4320] (first compound max 10 µM, 7x7, partner max 1 µM) | 0.0212 | -0.0428 | 0.0362 | -0.0869 | -0.042 | -0.0397 | -0.107 | 0.0133 |
